From PubChem BioAssay (NCI)
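A five-concentration, 48-hour dose response in 96-well plates underlies each endpoint, interpolated linearly between surrounding concentrations. At the TGI there is no net growth.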

Legend:
Experiment in all cases: NCI tumour cell line growth inhibition, 48 h
BT-549 breast = test system: BT-549 breast
NCI-H460 lung = test system: NCI-H460 lung
OVCAR-3 ovarian = test system: OVCAR-3 ovarian
SN12C renal = test system: SN12C renal
MDA-MB-231 breast = test system: MDA-MB-231 breast
SK-MEL-5 melanoma = test system: SK-MEL-5 melanoma
NCI/ADR-RES ovarian = test system: NCI/ADR-RES ovarian
K-562 leukemia = test system: K-562 leukemia
OVCAR-8 ovarian = test system: OVCAR-8 ovarian
MOLT-4 leukemia = test system: MOLT-4 leukemia
M14 melanoma = test system: M14 melanoma
PC-3 prostate = test system: PC-3 prostate
DU-145 prostate = test system: DU-145 prostate
HT29 colon = test system: HT29 colon
MDA-MB-435 = test system: MDA-MB-435
UACC-257 melanoma = test system: UACC-257 melanoma
A498 renal = test system: A498 renal
NCI-H522 lung = test system: NCI-H522 lung
HCC-2998 colon = test system: HCC-2998 colon
ACHN renal = test system: ACHN renal
KM12 colon = test system: KM12 colon
HS 578T breast = test system: HS 578T breast
786-0 renal = test system: 786-0 renal
U251 CNS = test system: U251 CNS
TK-10 renal = test system: TK-10 renal
SK-MEL-2 melanoma = test system: SK-MEL-2 melanoma
RPMI-8226 leukemia = test system: RPMI-8226 leukemia
SNB-75 CNS = test system: SNB-75 CNS
MCF7 breast = test system: MCF7 breast
UO-31 renal = test system: UO-31 renal
HL-60(TB) leukemia = test system: HL-60(TB) leukemia
SK-OV-3 ovarian = test system: SK-OV-3 ovarian
COLO 205 colon = test system: COLO 205 colon
EKVX NSCLC = test system: EKVX NSCLC
LOX IMVI melanoma = test system: LOX IMVI melanoma
SNB-19 CNS = test system: SNB-19 CNS
HOP-62 NSCLC = test system: HOP-62 NSCLC
MALME-3M melanoma = test system: MALME-3M melanoma
HCT-15 colon = test system: HCT-15 colon
HCT-116 colon = test system: HCT-116 colon
NCI-H226 lung = test system: NCI-H226 lung
HOP-92 NSCLC = test system: HOP-92 NSCLC
NCI-H23 lung = test system: NCI-H23 lung
SW-620 colon = test system: SW-620 colon
MDA-N = test system: MDA-N
SR leukemia = test system: SR leukemia
OVCAR-4 ovarian = test system: OVCAR-4 ovarian
SF-268 CNS = test system: SF-268 CNS
A549 NSCLC = test system: A549 NSCLC
SF-295 CNS = test system: SF-295 CNS
RXF 393 renal = test system: RXF 393 renal
CAKI-1 renal = test system: CAKI-1 renal
CCRF-CEM leukemia = test system: CCRF-CEM leukemia
IGROV1 ovarian = test system: IGROV1 ovarian
SK-MEL-28 melanoma = test system: SK-MEL-28 melanoma
T-47D breast = test system: T-47D breast
SF-539 CNS = test system: SF-539 CNS
UACC-62 melanoma = test system: UACC-62 melanoma
OVCAR-5 ovarian = test system: OVCAR-5 ovarian

Work on `COC(=O)C1(Cc2ccccc2C)Cc2ccc(C)cc2C1=O` (configuration not stated) yielded a TGI (BT-549 breast) greater than 100 µM, a TGI (NCI-H460 lung) greater than 100 µM and a TGI (OVCAR-3 ovarian) greater than 100 µM. It also gave a TGI (SN12C renal) of 57.4 µM, a TGI (MDA-MB-231 breast) greater than 100 µM and a TGI (SK-MEL-5 melanoma) of 32.1 µM. For the same molecule, the TGI (NCI/ADR-RES ovarian) was 65.6 µM, the TGI (K-562 leukemia) was greater than 100 µM and the TGI (OVCAR-8 ovarian) was greater than 100 µM. It also gave a TGI (MOLT-4 leukemia) of 74.7 µM, a TGI (M14 melanoma) greater than 100 µM and a TGI (PC-3 prostate) of 92.6 µM. It also gave a TGI (DU-145 prostate) greater than 100 µM, a TGI (HT29 colon) of 57.5 µM and a TGI (MDA-MB-435) greater than 100 µM. For the same molecule, the TGI (UACC-257 melanoma) was greater than 100 µM, the TGI (A498 renal) was greater than 100 µM and the TGI (NCI-H522 lung) was 65.9 µM. It also gave a TGI (HCC-2998 colon) greater than 100 µM, a TGI (ACHN renal) greater than 100 µM and a TGI (KM12 colon) greater than 100 µM. For the same molecule, the TGI (HS 578T breast) was greater than 100 µM, the TGI (786-0 renal) was greater than 100 µM and the TGI (U251 CNS) was greater than 100 µM. It also gave a TGI (TK-10 renal) of 85.9 µM, a TGI (SK-MEL-2 melanoma) of 47.7 µM and a TGI (RPMI-8226 leukemia) of 32.2 µM. For the same molecule, the TGI (SNB-75 CNS) was greater than 100 µM, the TGI (MCF7 breast) was 41 µM and the TGI (UO-31 renal) was greater than 100 µM. It also gave a TGI (HL-60(TB) leukemia) of 30.9 µM, a TGI (SK-OV-3 ovarian) greater than 100 µM and a TGI (COLO 205 colon) of 38.1 µM. The TGI (EKVX NSCLC) was greater than 100 µM, the TGI (LOX IMVI melanoma) was 45.9 µM and the TGI (SNB-19 CNS) was greater than 100 µM. The TGI (HOP-62 NSCLC) was greater than 100 µM, the TGI (MALME-3M melanoma) was 72.6 µM and the TGI (HCT-15 colon) was greater than 100 µM. It also gave a TGI (HCT-116 colon) greater than 100 µM, a TGI (NCI-H226 lung) greater than 100 µM and a TGI (HOP-92 NSCLC) of 71.3 µM. It also gave a TGI (NCI-H23 lung) greater than 100 µM, a TGI (SW-620 colon) greater than 100 µM and a TGI (MDA-N) greater than 100 µM. For the same molecule, the TGI (SR leukemia) was 33.1 µM, the TGI (OVCAR-4 ovarian) was greater than 100 µM and the TGI (SF-268 CNS) was greater than 100 µM. For the same molecule, the TGI (A549 NSCLC) was greater than 100 µM, the TGI (SF-295 CNS) was greater than 100 µM and the TGI (RXF 393 renal) was 96.4 µM. For the same molecule, the TGI (CAKI-1 renal) was greater than 100 µM, the TGI (CCRF-CEM leukemia) was greater than 100 µM and the TGI (IGROV1 ovarian) was greater than 100 µM. It also gave a TGI (SK-MEL-28 melanoma) greater than 100 µM, a TGI (T-47D breast) greater than 100 µM and a TGI (SF-539 CNS) greater than 100 µM. For the same molecule, the TGI (UACC-62 melanoma) was greater than 100 µM and the TGI (OVCAR-5 ovarian) was greater than 100 µM.

`C=CCSC1=N/C(=C\c2ccco2)C(=O)N1CC=C` showed a TGI (BT-549 breast) greater than 100 µM, a TGI (NCI-H460 lung) greater than 100 µM and a TGI (OVCAR-3 ovarian) greater than 100 µM. The TGI (SN12C renal) was greater than 100 µM, the TGI (MDA-MB-231 breast) was greater than 100 µM and the TGI (SK-MEL-5 melanoma) was greater than 100 µM. It also gave a TGI (NCI/ADR-RES ovarian) greater than 100 µM, a TGI (K-562 leukemia) greater than 100 µM and a TGI (OVCAR-8 ovarian) greater than 100 µM. For the same molecule, the TGI (MOLT-4 leukemia) was greater than 100 µM, the TGI (M14 melanoma) was greater than 100 µM and the TGI (PC-3 prostate) was greater than 100 µM. It also gave a TGI (DU-145 prostate) greater than 100 µM, a TGI (HT29 colon) greater than 100 µM and a TGI (MDA-MB-435) greater than 100 µM. For the same molecule, the TGI (UACC-257 melanoma) was greater than 100 µM, the TGI (A498 renal) was 94.1 µM and the TGI (NCI-H522 lung) was greater than 100 µM. It also gave a TGI (HCC-2998 colon) greater than 100 µM, a TGI (ACHN renal) greater than 100 µM and a TGI (KM12 colon) greater than 100 µM. For the same molecule, the TGI (HS 578T breast) was greater than 100 µM, the TGI (786-0 renal) was greater than 100 µM and the TGI (U251 CNS) was greater than 100 µM. The TGI (TK-10 renal) was greater than 100 µM, the TGI (SK-MEL-2 melanoma) was greater than 100 µM and the TGI (RPMI-8226 leukemia) was greater than 100 µM. It also gave a TGI (MCF7 breast) greater than 100 µM, a TGI (UO-31 renal) greater than 100 µM and a TGI (HL-60(TB) leukemia) of 60.2 µM. The TGI (SK-OV-3 ovarian) was greater than 100 µM, the TGI (COLO 205 colon) was greater than 100 µM and the TGI (EKVX NSCLC) was greater than 100 µM. The TGI (LOX IMVI melanoma) was greater than 100 µM, the TGI (SNB-19 CNS) was greater than 100 µM and the TGI (HOP-62 NSCLC) was greater than 100 µM. It also gave a TGI (MALME-3M melanoma) greater than 100 µM, a TGI (HCT-15 colon) greater than 100 µM and a TGI (HCT-116 colon) greater than 100 µM. The TGI (NCI-H226 lung) was greater than 100 µM, the TGI (HOP-92 NSCLC) was greater than 100 µM and the TGI (NCI-H23 lung) was greater than 100 µM. It also gave a TGI (SW-620 colon) greater than 100 µM, a TGI (MDA-N) greater than 100 µM and a TGI (SR leukemia) greater than 100 µM. For the same molecule, the TGI (OVCAR-4 ovarian) was greater than 100 µM, the TGI (SF-268 CNS) was greater than 100 µM and the TGI (A549 NSCLC) was greater than 100 µM. The TGI (SF-295 CNS) was greater than 100 µM, the TGI (RXF 393 renal) was 65.7 µM and the TGI (CAKI-1 renal) was greater than 100 µM. For the same molecule, the TGI (CCRF-CEM leukemia) was greater than 100 µM, the TGI (IGROV1 ovarian) was greater than 100 µM and the TGI (SK-MEL-28 melanoma) was greater than 100 µM. The TGI (T-47D breast) was greater than 100 µM, the TGI (SF-539 CNS) was greater than 100 µM and the TGI (UACC-62 melanoma) was greater than 100 µM. It also gave a TGI (OVCAR-5 ovarian) greater than 100 µM.
